Test results as given in patent US7504394B2 (Wyeth, priority 2004, dated 2009).
≈ marks a conversion by molar mass, not a printed value.

Experiments:
[1] = Equilibrium solubility of bazedoxifene ascorbate in 0.0005 M acetic acid at 37° C.; format: physicochemical; conditions: aqueous buffer, thermodynamic from solid, filtered 0.2 um, HPLC
Method: The samples were rotated at 50 rotation/min for 18 hours. All samples were filtered through 0.2 um (Nylon Acrodisc) filter. Samples were analyzed by HPLC.

[2] = tested on: ovariectomized rat model of osteopenia; conditions: cited from earlier work
uterine response = conditions: preclinical models of uterine stimulation; cited from earlier work
[3] = tested on: MCF-7 cell line (human breast cancer cell line); conditions: cited from earlier work

Structure (SMILES) | solubility thermodynamic at 18 h [1] [µg/mL] | effect on bone loss [2] | effect on cholesterol [2] | stimulation of uterine response (uterine response) | estrogen agonist/antagonist behaviour [3]
Cc1c(-c2ccc(O)cc2)n(Cc2ccc(OCCN3CCCCCC3)cc2)c2ccc(O)cc12 [bazedoxifene ascorbate, 1-[4-(2-azepan-1-yl-ethoxy)-benzyl]-2-(4-hydroxy-phenyl)-3-methyl-1H-indol-5-ol] | 1660 (≈ 3.53 mM) |  |  |  | 
Cc1c(-c2ccc(O)cc2)n(Cc2ccc(OCCN3CCCCCC3)cc2)c2ccc(O)cc12 [bazedoxifene acetate] |  | estrogen agonist-like effect in preventing bone loss | reducing cholesterol | little or no stimulation of uterine response | behaves as an estrogen antagonist
